In ChEMBL document CHEMBL3045549, “Solvent-free, green and efficient synthesis of pyrano[4, 3-b]pyrans by grinding and their biological evaluation as antitumor and antioxidant agents” (Med Chem Res, 2013):

Experiments:
MCF7 = assay: Cytotoxicity against human MCF7 cells after 96 hrs by MTT assay; type: functional, cell-based; conditions: MCF7, 96 h
[1] = tested on: Radical scavenging activity; assay: Antioxidant activity assessed as inhibition of DPPH radical after 30 mins by spectrophotometric analysis; type: functional

Row | SMILES | IC50 (MCF7) [µM] | IC50 [1] [µM]
1 | Cc1cc2c(c(=O)o1)C(c1cccs1)C(C#N)=C(N)O2 (configuration not stated) | 15 | 739
2 | Cc1ccc(C2C(C#N)=C(N)Oc3cc(C)oc(=O)c32)cc1 (configuration not stated) | 54 | 634
3 | COc1ccc(C2C(C#N)=C(N)Oc3cc(C)oc(=O)c32)cc1 (configuration not stated) | 57 | 520
4 | Cc1cc2c(c(=O)o1)C(c1ccc([N+](=O)[O-])cc1)C(C#N)=C(N)O2 (configuration not stated) | 42 | 816
5 | Cc1cc2c(c(=O)o1)C(c1ccc(Cl)cc1)C(C#N)=C(N)O2 (configuration not stated) | 32 | 487
6 | Cc1cc2c(c(=O)o1)C(c1ccc(Br)cc1)C(C#N)=C(N)O2 (configuration not stated) | 35 | 512
7 | Cc1cc2c(c(=O)o1)C(c1ccco1)C(C#N)=C(N)O2 (configuration not stated) | 27 | 228
8 | Cc1cc2c(c(=O)o1)C(c1ccc(C)s1)C(C#N)=C(N)O2 (configuration not stated) | 22 | 943
9 | Cc1cc2c(c(=O)o1)C(c1ccc(Cl)s1)C(C#N)=C(N)O2 (configuration not stated) | 12 | 616
10 | Cc1cc2c(c(=O)o1)C(c1c[nH]c3ccccc13)C(C#N)=C(N)O2 (configuration not stated) | 10 | 339
11 | Cc1cc2c(c(=O)o1)C(c1c[nH]c3ccc(C#N)cc13)C(C#N)=C(N)O2 (configuration not stated) | 7 | 567
12 | Cc1cc2c(c(=O)o1)C(c1c[nH]c3ccc(Br)cc13)C(C#N)=C(N)O2 (configuration not stated) | 5 | 440
13 | Cc1cc2c(c(=O)o1)C(c1ccccc1)C(C#N)=C(N)O2 (configuration not stated) | 46 | 769
14 | O=C1O[C@H]([C@@H](O)CO)C(O)=C1O [ASCORBIC ACID] |  | 106
